Results published in ChEMBL document CHEMBL1201862, “PubChem BioAssay data set” (2004).
Activity calls are given as the source filed them.

Key:
cells [1] = settings: A549
[2] = target: T1, Heat shock factor protein 1 (Mus musculus, UniProt P38532); experiment: enhancement of HSF1-driven luciferase signal – cell-based, NIH3T3, luminescence, dose retest, confirmation (AID 435004); type: functional;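 also: stress induced by proteasome inhibitor MG132 added 30 min after compound; luciferase reporter driven by HSF1 response element in NIH3T3 cells; actives raise luminescence as potentiators of the MG132 stress response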
T1 sequence (P38532 whole entry): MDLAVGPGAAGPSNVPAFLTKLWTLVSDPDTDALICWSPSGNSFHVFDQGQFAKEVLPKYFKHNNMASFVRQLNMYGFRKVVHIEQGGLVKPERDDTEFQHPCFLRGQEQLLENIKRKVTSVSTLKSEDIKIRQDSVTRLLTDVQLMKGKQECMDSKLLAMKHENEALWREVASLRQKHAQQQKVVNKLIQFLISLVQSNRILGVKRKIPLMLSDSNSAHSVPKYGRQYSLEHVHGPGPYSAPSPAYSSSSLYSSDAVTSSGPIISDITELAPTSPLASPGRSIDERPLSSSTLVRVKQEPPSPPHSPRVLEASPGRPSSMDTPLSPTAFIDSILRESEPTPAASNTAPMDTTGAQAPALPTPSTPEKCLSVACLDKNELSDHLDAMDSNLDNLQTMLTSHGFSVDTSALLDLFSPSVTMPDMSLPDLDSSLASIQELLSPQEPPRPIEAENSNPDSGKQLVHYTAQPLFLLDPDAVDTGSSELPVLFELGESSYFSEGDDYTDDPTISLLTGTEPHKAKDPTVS

[3] = target: T2, High affinity choline transporter 1 (Homo sapiens, UniProt Q9GZV3); experiment: human choline transporter blockers, potency – cell-based, 5-point CRC, membrane potential dye, dose response (AID 504840); type: functional
T2 sequence (Q9GZV3 whole entry): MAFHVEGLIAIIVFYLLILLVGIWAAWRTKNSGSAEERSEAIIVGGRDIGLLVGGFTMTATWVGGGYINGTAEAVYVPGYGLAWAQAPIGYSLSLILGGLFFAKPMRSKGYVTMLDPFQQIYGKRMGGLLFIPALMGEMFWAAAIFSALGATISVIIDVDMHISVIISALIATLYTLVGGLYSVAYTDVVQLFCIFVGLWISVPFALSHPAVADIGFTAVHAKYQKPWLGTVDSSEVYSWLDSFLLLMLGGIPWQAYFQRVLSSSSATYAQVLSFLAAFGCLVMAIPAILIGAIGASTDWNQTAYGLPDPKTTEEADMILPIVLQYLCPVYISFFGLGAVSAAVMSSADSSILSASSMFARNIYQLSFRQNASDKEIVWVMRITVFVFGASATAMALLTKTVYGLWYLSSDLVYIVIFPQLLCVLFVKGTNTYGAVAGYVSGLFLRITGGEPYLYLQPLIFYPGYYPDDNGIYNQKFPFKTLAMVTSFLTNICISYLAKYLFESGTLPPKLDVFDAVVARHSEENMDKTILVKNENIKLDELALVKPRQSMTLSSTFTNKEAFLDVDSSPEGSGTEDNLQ

[4] = target: T3, Oxysterols receptor LXR-beta (Homo sapiens, UniProt P55055); type: functional, cell-based;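 also: agonist activity at LXR measured by a cell-based luminescence readout across a dose range, run as a counterscreen for daf-12 agonists; HEK293 cells with Gal4-LXR fusion and GAL4-driven luciferase reporter; potency for activation of Gal4-LXR reporter so compounds are agonists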
T3 sequence (P55055 whole entry): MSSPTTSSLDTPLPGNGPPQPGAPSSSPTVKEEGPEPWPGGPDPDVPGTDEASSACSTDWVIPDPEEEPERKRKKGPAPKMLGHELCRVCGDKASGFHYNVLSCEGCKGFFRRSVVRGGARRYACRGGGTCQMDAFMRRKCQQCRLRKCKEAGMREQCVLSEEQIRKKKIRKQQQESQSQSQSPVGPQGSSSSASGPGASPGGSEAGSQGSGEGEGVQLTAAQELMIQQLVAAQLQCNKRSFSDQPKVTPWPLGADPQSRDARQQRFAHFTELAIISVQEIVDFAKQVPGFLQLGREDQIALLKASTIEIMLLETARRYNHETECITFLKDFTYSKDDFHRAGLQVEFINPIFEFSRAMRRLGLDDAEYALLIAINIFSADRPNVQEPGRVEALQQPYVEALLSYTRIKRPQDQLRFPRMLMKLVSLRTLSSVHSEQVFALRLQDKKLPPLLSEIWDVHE

[5] = Luminescence Cell-Based Dose Response HTS to Identify Activators of Luciferase Translation or Activity in H4 […] Cells. [Related pubchem assays: 1829 (Project Summary), 1814 (Primary HTS)]; type: functional
H4 = experiment: Luminescence Cell-Based Dose Response HTS to Identify Activators of 5'UTR Stem-Loop Driven Prion Protein mRNA Translation in H4 Neuroglioblastoma Cells. [Related pubchem assays: 1829 (Project Summary), 1814 (Primary HTS)]; type: functional; settings: Homo sapiens
[6] = target: T4, Sentrin-specific protease 8 (Homo sapiens, UniProt Q96LD8); type: functional;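 also: luminescence read-out of SENP8 inhibition, dose-response confirmation following an ultra-high-throughput screen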
T4 sequence (Q96LD8 whole entry): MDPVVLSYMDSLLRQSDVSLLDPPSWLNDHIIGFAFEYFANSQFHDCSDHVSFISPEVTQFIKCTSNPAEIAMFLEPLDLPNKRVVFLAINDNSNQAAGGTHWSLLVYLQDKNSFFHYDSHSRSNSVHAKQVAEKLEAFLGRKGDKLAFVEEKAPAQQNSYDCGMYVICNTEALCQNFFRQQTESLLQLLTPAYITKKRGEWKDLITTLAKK

[7] = target: T5, Sentrin-specific protease 7 (Homo sapiens, UniProt Q9BQF6); type: functional;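 also: Luminescence-based dose-response confirmation of ultra-high-throughput screening hits, measuring inhibition of SENP7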
T5 sequence (Q9BQF6 whole entry): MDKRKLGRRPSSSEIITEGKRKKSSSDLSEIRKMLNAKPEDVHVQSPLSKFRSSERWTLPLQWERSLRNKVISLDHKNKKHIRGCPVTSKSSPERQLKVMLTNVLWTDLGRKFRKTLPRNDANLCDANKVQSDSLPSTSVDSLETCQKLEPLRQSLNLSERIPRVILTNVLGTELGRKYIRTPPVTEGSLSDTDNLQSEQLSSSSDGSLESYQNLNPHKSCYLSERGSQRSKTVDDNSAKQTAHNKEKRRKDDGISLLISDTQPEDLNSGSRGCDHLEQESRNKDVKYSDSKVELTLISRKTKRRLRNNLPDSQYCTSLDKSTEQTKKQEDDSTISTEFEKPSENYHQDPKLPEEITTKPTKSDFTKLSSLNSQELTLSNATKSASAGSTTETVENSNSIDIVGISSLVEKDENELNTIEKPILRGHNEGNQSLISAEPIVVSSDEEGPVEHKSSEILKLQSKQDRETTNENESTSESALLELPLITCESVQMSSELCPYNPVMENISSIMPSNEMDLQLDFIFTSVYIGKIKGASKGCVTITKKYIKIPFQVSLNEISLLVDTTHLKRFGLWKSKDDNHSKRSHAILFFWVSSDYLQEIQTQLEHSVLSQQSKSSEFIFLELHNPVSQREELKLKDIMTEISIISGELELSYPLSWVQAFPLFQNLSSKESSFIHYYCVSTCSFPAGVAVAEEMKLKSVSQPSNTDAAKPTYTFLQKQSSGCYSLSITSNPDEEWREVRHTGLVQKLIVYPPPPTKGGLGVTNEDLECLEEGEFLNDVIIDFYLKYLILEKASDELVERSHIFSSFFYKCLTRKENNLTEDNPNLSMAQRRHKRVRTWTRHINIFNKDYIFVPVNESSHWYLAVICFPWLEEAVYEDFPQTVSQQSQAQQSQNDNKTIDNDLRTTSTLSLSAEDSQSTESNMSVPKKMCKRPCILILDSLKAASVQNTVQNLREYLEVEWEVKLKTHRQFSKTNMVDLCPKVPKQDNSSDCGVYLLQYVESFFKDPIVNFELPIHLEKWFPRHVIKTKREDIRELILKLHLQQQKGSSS

[8] = target: T6, Sentrin-specific protease 6 (Homo sapiens, UniProt Q9GZR1); type: functional;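 also: Luminescence-based dose-response confirmatory assay of SENP6 inhibition, following up an ultra-high-throughput screen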
T6 sequence (Q9GZR1 whole entry): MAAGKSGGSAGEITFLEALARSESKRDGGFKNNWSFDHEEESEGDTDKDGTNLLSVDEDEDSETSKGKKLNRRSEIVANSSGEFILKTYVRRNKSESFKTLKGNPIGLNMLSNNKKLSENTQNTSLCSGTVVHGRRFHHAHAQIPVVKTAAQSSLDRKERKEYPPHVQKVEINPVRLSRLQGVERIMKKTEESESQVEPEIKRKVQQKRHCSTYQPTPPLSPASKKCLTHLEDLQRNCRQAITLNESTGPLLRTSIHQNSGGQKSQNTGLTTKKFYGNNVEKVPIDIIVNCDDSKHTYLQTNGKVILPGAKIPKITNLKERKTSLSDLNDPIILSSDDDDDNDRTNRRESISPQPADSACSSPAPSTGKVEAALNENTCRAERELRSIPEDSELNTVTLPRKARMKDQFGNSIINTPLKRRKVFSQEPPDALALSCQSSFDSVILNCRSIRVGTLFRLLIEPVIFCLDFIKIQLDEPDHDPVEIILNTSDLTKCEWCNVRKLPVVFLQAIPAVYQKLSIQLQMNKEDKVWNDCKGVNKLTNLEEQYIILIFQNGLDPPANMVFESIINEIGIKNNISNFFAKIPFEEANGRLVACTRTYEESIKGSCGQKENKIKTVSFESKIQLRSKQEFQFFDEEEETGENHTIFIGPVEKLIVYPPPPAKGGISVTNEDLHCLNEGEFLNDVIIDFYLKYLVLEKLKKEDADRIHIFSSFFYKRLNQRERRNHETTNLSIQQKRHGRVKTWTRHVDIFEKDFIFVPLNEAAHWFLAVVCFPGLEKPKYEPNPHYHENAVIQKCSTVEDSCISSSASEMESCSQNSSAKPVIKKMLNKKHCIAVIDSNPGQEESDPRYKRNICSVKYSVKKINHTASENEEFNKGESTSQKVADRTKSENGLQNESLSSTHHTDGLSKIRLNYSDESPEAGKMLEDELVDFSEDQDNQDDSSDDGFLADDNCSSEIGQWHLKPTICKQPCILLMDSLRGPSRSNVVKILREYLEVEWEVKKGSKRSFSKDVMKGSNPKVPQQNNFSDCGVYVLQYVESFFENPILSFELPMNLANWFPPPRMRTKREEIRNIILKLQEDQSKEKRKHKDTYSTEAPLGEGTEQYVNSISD

Caspase-3 = target: T7, Caspase-3 (Homo sapiens, UniProt P42574); type: functional;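 also: Dose-response selectivity test against caspase-3 for candidate inhibitors of sentrin-specific proteases (SENPs)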
T7 sequence (P42574 whole entry): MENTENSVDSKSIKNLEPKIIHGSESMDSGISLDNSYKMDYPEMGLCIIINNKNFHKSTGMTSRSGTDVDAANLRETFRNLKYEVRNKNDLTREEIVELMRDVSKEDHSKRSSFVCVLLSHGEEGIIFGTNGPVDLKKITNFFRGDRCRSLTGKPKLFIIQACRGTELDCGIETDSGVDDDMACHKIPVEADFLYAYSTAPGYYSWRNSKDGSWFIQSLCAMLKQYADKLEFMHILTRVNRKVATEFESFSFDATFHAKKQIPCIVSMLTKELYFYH

cells [9] = settings: HEK293

O=C(Nc1ccc2c(c1)OCCO2)c1ccc(NC(=O)C2CCCO2)cc1 (configuration not stated)
AC50 (cells [1]): > 52 µM (inactive)

O=C(Nc1ccn(Cc2ccccc2)n1)c1n[nH]c([N+](=O)[O-])c1Cl
EC50 [2]: > 260 µM (inconclusive)
IC50 [3]: 4.37 µM (active)
EC50 [4]: > 67.5 µM (inactive)

Cn1c(NC(=O)CCc2ccccc2)cc(=O)n(C)c1=O
EC50 [5]: 4.41 µM (inconclusive)
EC50 (H4): 9.93 µM (active)
EC50 [4]: > 67.5 µM (inactive)

CC(=O)c1sc(N/N=C\c2ccc(N(C)C)cc2)nc1C
IC50 [6]: 4.08 µM (active)
IC50 [7]: 3.05 µM (active)
IC50 [8]: 3.82 µM (active)
IC50 (Caspase-3): 9.56 µM (active)
AC50 (cells [9]): > 52 µM (inactive)
